pIC50: −log10 of the molar value.
Tested on: not given
Experiment: not given
Conditions: phase II clinical trial, allergic rhinitis; cited from earlier work

SMILES | efficacy versus placebo
Oc1cccc(Nc2ncc(F)c(Nc3cccc(O)c3)n2)c1 [Example R112] | lack of efficacy

Molecular target: T1, recombinant human GST-SYK (Homo sapiens, UniProt P43405)
T1 construct: purchased Carna Biosciences 08-176
Experiment: Homogeneous Time-Resolved Fluorescence (HTRF) assay for the recombinant human Syk enzyme
Assay type: biochemical
Conditions: HTRF assay, recombinant human GST-SYK; IC50 given as class symbols; read-out: rhSYK Activity
Procedure, shortened: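 Enzyme […], pH 7.5 Tris/tween/DTT buffer; 10 min preincubation with compound, RT. Start: 250 nM biotin-peptide, 25 μM ATP, 5 mM Mg; 45′ RT. Stop/detect: 40 mM EDTA, Eu-anti-pTyr, SA-APC; read 30 min later.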

SMILES | pIC50
Cc1cc(Nc2nccc(C(F)(F)F)n2)cc(-c2ccc(NC(C)(C)c3nc(=O)o[nH]3)nc2)c1 [Example 18.10, 3-(2-{[5-(3-Methyl-5-{[4-(trifluoromethyl)pyrimidin-2-yl]amino}phenyl)pyridin-2-yl]amino}propan-2-yl)-1,2,4-oxadiazol-5(4H)-one] | > 7.00
Cc1cc(Nc2nccc(C(F)(F)F)n2)cc(-c2ccc(-c3noc(=O)[nH]3)nc2)c1 [Example 18.11] | > 7.00
Cc1cc(Nc2nccc(C(F)(F)F)n2)cc(-c2ccc(C(NC(N)=O)(C3CC3)C3CC3)nc2)c1 [Example 19.1, 1-{Dicyclopropyl[5-(3-methyl-5-{[4-(trifluoromethyl)pyrimidin-2-yl]amino}phenyl)pyridin-2-yl]methyl}urea] | > 7.00
Cc1cc(Nc2nccc(C(C)(F)F)n2)cc(-c2cccnc2)c1 [Example 20.1, 4-(1,1-Difluoroethyl)-N-[3-methyl-5-(pyridin-3-yl)phenyl]pyrimidin-2-amine] | > 7.00
Cc1cc(Nc2nccc(OC3CCNCC3)n2)cc(-c2cccnc2)c1 [Example 20.2, N-[3-methyl-5-(pyridin-3-yl)phenyl]-4-(piperidin-4-yloxy)pyrimidin-2-amine] | > 7.00
Cc1cc(Nc2ncc(Cl)c(C(F)(F)F)n2)cc(-c2cccnc2)c1 [Example 20.3] | 6.00 to 7.00
Cc1cc(Nc2nccc(C(F)(F)F)n2)cc(-c2ccc(S(=O)(=O)NCC(=O)O)nc2)c1 [Example 21.1, N-{[5-(3-methyl-5-{[4-(trifluoromethyl)pyrimidin-2-yl]amino}phenyl)pyridin-2-yl]sulfonyl}glycine] | > 7.00
Cc1cc(Nc2nccc(C(F)(F)F)n2)cc(-c2ccc(S(=O)(=O)NC3CC3)nc2)c1 [Example 21.2, N-cyclopropyl-5-(3-methyl-5-{[4-(trifluoromethyl)pyrimidin-2-yl]amino}phenyl)pyridine-2-sulfonamide] | 6.00 to 7.00
Cc1cc(Nc2nccc(C(F)(F)F)n2)cc(-c2ccc(S(=O)(=O)NC3CCNC3=O)nc2)c1 (stereo not drawn) [Example 21.3, 5-(3-methyl-5-{[4-(trifluoromethyl)pyrimidin-2-yl]amino}phenyl)-N-(2-oxopyrrolidin-3-yl)pyridine-2-sulfonamide] | > 7.00
Cc1cc(Nc2nccc(C(F)(F)F)n2)cc(-c2ccc(S(N)(=O)=O)nc2)c1 [Example 21.4, 5-(3-methyl-5-{[4-(trifluoromethyl)pyrimidin-2-yl]amino}phenyl)pyridine-2-sulfonamide] | > 7.00
CCOC(=O)/C=C/c1ccc(-c2cc(C)cc(Nc3nccc(C(F)(F)F)n3)c2)cn1 [Example 22.1, Ethyl-3-[5-(3-methyl-5-{[4-(trifluoromethyl)pyrimidin-2-yl]amino}phenyl)pyridin-2-yl]prop-2-enoate] | 6.00 to 7.00
Cc1cc(Nc2nccc(C(F)(F)F)n2)cc(-c2ccc(/C=C/C(=O)O)nc2)c1 [Example 22.2, 3-[5-(3-Methyl-5-{[4-(trifluoromethyl)pyrimidin-2-yl]amino}phenyl)pyridin-2-yl]prop-2-enoic acid] | > 7.00
Cc1cc(Nc2nccc(C(F)(F)F)n2)cc(-c2ccc(CC(C)(C)C(=O)O)nc2)c1 [Example 22.3, 2,2-Dimethyl-3-[5-(3-methyl-5-{[4-(trifluoromethyl)pyrimidin-2-yl]amino}phenyl)pyridin-2-yl]propanic acid] | > 7.00

Next, values leading:

pIC50 | SMILES
> 7.00 | Cc1cc(Nc2nccc(C(F)(F)F)n2)cc(-c2ccc(C(O)C(C)(C)C(=O)O)nc2)c1 (stereo not drawn) [Example 23.1, 3-Hydroxy-2,2-dimethyl-3-[5-(3-methyl-5-{[4-(trifluoromethyl)pyrimidin-2-yl]amino}phenyl)pyridin-2-yl]propanoic acid]
> 7.00 | CCOC(=O)C(F)(F)C(O)c1ccc(-c2cc(C)cc(Nc3nccc(C(F)(F)F)n3)c2)cn1 (stereo not drawn) [Example 24.1, Ethyl 2,2-difluoro-3-hydroxy-3-[5-(3-methyl-5-{[4-(trifluoromethyl)pyrimidin-2-yl]amino}phenyl)pyridin-2-yl]propanoate]
> 7.00 | Cc1cc(Nc2nccc(C(F)(F)F)n2)cc(-c2ccc(C(O)C(F)(F)C(=O)O)nc2)c1 (stereo not drawn) [Example 24.2, 2,2-Difluoro-3-hydroxy-3-[5-(3-methyl-5-{[4-(trifluoromethyl)pyrimidin-2-yl]amino}phenyl)pyridin-2-yl]propanoic acid]
> 7.00 | Cc1cc(Nc2nccc(C(F)(F)F)n2)cc(-c2ccc(CC(F)(F)C(=O)O)nc2)c1 [Example 24.3, 2,2-Difluoro-3-[5-(3-methyl-5-{[4-(trifluoromethyl)pyrimidin-2-yl]amino}phenyl)pyridin-2-yl]propanoic acid]
> 7.00 | Cc1cc(Nc2nccc(C(F)(F)F)n2)cc(-c2ccc(/C=C(/F)C(=O)O)nc2)c1 [Example 24.4, (2E)-2-Fluoro-3-[5-(3-methyl-5-{[4-(trifluoromethyl)pyrimidin-2-yl]amino}phenyl)pyridin-2-yl]prop-2-enoic acid]
6.00 to 7.00 | COC(=O)Cn1cc(-c2ccc(-c3cc(C)cc(Nc4nccc(C(F)(F)F)n4)c3)cn2)nn1 [Example 25.1, Methyl {4-[5-(3-methyl-5-{[4-(trifluoromethyl)pyrimidin-2-yl]amino}phenyl)pyridin-2-yl]-1H-1,2,3-triazol-1-yl}acetate]
> 7.00 | Cc1cc(Nc2nccc(C(F)(F)F)n2)cc(-c2ccc(-c3cn(CC(=O)O)nn3)nc2)c1 [Example 25.2, {4-[5-(3-Methyl-5-{[4-(trifluoromethyl)pyrimidin-2-yl]amino}phenyl)pyridin-2-yl]-1H-1,2,3-triazol-1-yl}acetic acid]
6.00 to 7.00 | CC(O)c1ccc(-c2cc(Nc3nccc(C(F)(F)F)n3)cc(C(=O)O)c2)cn1 (stereo not drawn) [Example 26.1, 3-[6-(1-Hydroxyethyl)pyridin-3-yl]-5-{[4-(trifluoromethyl)pyrimidin-2-yl]amino}benzoic acid]

Tested on: PGD2
Experiment: not given
Conditions: dosed intranasally, phase I/II study, allergic rhinitis; cited from earlier work

SMILES | change in PGD2 | clinical safety
Oc1cccc(Nc2ncc(F)c(Nc3cccc(O)c3)n2)c1 [Example R112] | statistically significant decrease | safe across a range of indicators

From patent US9376418B2, “Substituted pyridine spleen tyrosine kinase (SYK) inhibitors” (Merck Sharp & Dohme Corp., priority 2012, dated 2016)
